Laboratory results: PubChem BioAssay AID256 (DTP/NCI, 2004)
Several values for one entry are separate records, joined by “and”; a condition that tells them apart may be missing. Equal entries are not always repeated. Inconclusive results and toxic doses are left out.

System: CD2F1 mice, L1210 leukemia ip, survival T/C
Test: NCI In Vivo Anticancer Drug Screen. Data for tumor model L1210 Leukemia (intraperitoneal) in CD2F1 (CDF1) mice
Details: endpoint: mean survival time, higher = longer survival
In short: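 Each value reflects a quotient of treated over vehicle control outcomes in mice with a transplanted tumor.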

[1] = dose: 100.0 mg/kg/injection, schedule: Q04DX002 (ip), vehicle: saline
[2] = dose: 200.0 mg/kg/injection, schedule: Q04DX002 (ip), vehicle: saline
[3] = dose: 400.0 mg/kg/injection, schedule: Q04DX002 (ip), vehicle: saline
[4] = dose: 50.0 mg/kg/injection, schedule: Q01DX009 (ip), vehicle: saline with Tween-80
[5] = dose: 100.0 mg/kg/injection, schedule: Q01DX009 (ip), vehicle: saline with Tween-80
[6] = dose: 100.0 mg/kg/injection, schedule: Q04DX003 (ip), vehicle: saline
[7] = dose: 200.0 mg/kg/injection, schedule: Q01DX009 (ip), vehicle: saline with Tween-80
[8] = dose: 200.0 mg/kg/injection, schedule: Q04DX003 (ip), vehicle: saline
[9] = dose: 400.0 mg/kg/injection, schedule: Q04DX003 (ip), vehicle: saline
[10] = dose: 6.25 mg/kg/injection, schedule: Q01DX009 (ip), vehicle: saline
[11] = dose: 12.5 mg/kg/injection, schedule: Q01DX009 (ip), vehicle: saline
[12] = dose: 100.0 mg/kg/injection, schedule: Q04DX003 (ip), vehicle: saline with Tween-80
[13] = dose: 200.0 mg/kg/injection, schedule: Q04DX003 (ip), vehicle: saline with Tween-80
[14] = dose: 400.0 mg/kg/injection, schedule: Q01DX009 (ip), vehicle: saline with Tween-80
[15] = dose: 400.0 mg/kg/injection, schedule: Q04DX003 (ip), vehicle: saline with Tween-80
[16] = dose: 12.5 mg/kg/injection, schedule: Q01DX009 (ip), vehicle: saline with Tween-80
[17] = dose: 25.0 mg/kg/injection, schedule: Q01DX009 (ip), vehicle: saline with Tween-80
[18] = dose: 200.0 mg/kg/injection, schedule: Q01DX001 (ip), vehicle: saline with Tween-80
[19] = dose: 50.0 mg/kg/injection, schedule: Q01DX009 (ip), vehicle: saline
[20] = dose: 100.0 mg/kg/injection, schedule: Q01DX001 (ip), vehicle: saline with Tween-80
[21] = dose: 25.0 mg/kg/injection, schedule: Q01DX009 (ip), vehicle: saline

## OC(Cc1ccc2ccccc2n1)C(Cl)(Cl)Cl (centres undefined)
dose: 100.0 mg/kg/injection, schedule: Q04DX003 (ip), vehicle: alcohol
  T/C: 95 % of control
dose: 200.0 mg/kg/injection, schedule: Q04DX003 (ip), vehicle: alcohol
  T/C: 95 % of control
dose: 400.0 mg/kg/injection, schedule: Q04DX003 (ip), vehicle: alcohol
  T/C: 101 % of control

## CN1C2CCC1C(CO)C(O)C2 (centres undefined)
[1]
  T/C: 105 % of control
[2]
  T/C: 94 % of control
[3]
  T/C: 97 % of control

## CCN(CC)C1=C(C)S(=O)(=O)C1c1ccc(C)cc1 (centres undefined)
[4]
  T/C: 102 % of control
dose: 100.0 mg/kg/injection, schedule: Q01DX001 (ip), vehicle: saline
  T/C: 97 % of control
[5]
  T/C: 98 % of control
[6]
  T/C: 103 % of control
dose: 200.0 mg/kg/injection, schedule: Q01DX001 (ip), vehicle: saline
  T/C: 97 % of control
[7]
  T/C: 98 % of control
[8]
  T/C: 109 % of control
dose: 400.0 mg/kg/injection, schedule: Q01DX001 (ip), vehicle: saline
  T/C: 97 % of control
[9]
  T/C: 100 % of control

## COC1N(C2CC(O)C(CO)O2)C(=O)NC(=O)C1(F)Br (centres undefined)
dose: 1.56 mg/kg/injection, schedule: Q01DX009 (ip), vehicle: saline
  T/C: 97 % of control and 108 % of control
dose: 3.12 mg/kg/injection, schedule: Q01DX009 (ip), vehicle: saline
  T/C: 115 % of control and 117 % of control
[10]
  T/C: 112 % of control
[11]
  T/C: 109 % of control
[6]
  T/C: 110 % of control
[8]
  T/C: 122 % of control

## O=C1OC(c2ccc(O)cc2)(c2ccc(O)cc2)c2ccccc21
[5]
  T/C: 95 % of control
[12]
  T/C: 107 % of control
[7]
  T/C: 91 % of control
[13]
  T/C: 94 % of control
[14]
  T/C: 89 % of control
[15]
  T/C: 93 % of control

## C1=CC=CCC=C1
[16]
  T/C: 92 % of control
[17]
  T/C: 92 % of control
[4]
  T/C: 98 % of control

## O=C(Nc1cc(Cl)ccc1Cl)c1ccc(Cl)cc1Cl
[4]
  T/C: 92 % of control
[5]
  T/C: 87 % of control
[12]
  T/C: 90 % of control
[7]
  T/C: 92 % of control
[13]
  T/C: 88 % of control

## O=C1CCCc2ccc(Cl)cc21
[6]
  T/C: 96 % of control
[8]
  T/C: 97 % of control
[9]
  T/C: 108 % of control

## CCCCCCCCCCCC(=O)N(CCCC)CCCC
[1]
  T/C: 103 % of control
[2]
  T/C: 103 % of control
[3]
  T/C: 106 % of control

## COc1cc(O)c2c(O)c3c(c4c2c1[C@]1(C4)C(C)=CCCC1(C)C)[C@H](O)[C@@]1(O)CC(=O)C(C(N)=O)=C(O)[C@@]1(O)C3=O
dose: 1.56 mg/kg/injection, schedule: Q01DX009 (ip), vehicle: saline with Tween-80
  T/C: 96 % of control and 101 % of control
dose: 3.13 mg/kg/injection, schedule: Q01DX009 (ip), vehicle: saline with Tween-80
  T/C: 98 % of control
dose: 6.25 mg/kg/injection, schedule: Q01DX009 (ip), vehicle: saline with Tween-80
  T/C: 104 % of control
[16]
  T/C: 114 % of control
dose: 16.5 mg/kg/injection, schedule: Q04DX003 (ip), vehicle: saline with Tween-80
  T/C: 98 % of control
[17]
  T/C: 119 % of control
dose: 25.0 mg/kg/injection, schedule: Q04DX003 (ip), vehicle: saline with Tween-80
  T/C: 102 % of control
dose: 37.5 mg/kg/injection, schedule: Q04DX003 (ip), vehicle: saline with Tween-80
  T/C: 111 % of control
[4]
  T/C: 90 % of control

## Oc1ccc(Br)cc1/C=N/c1nc(-c2ccccc2)cs1.Oc1ccc(Br)cc1/C=N/c1nc(-c2ccccc2)cs1.[Cu]
dose: 12.5 mg/kg/injection, schedule: Q01DX001 (ip), vehicle: saline
  T/C: 87 % of control
dose: 25.0 mg/kg/injection, schedule: Q01DX001 (ip), vehicle: saline
  T/C: 100 % of control
dose: 50.0 mg/kg/injection, schedule: Q01DX001 (ip), vehicle: saline
  T/C: 91 % of control
[18]
  T/C: 93 % of control

## NC(=O)NNC(=O)C(Cl)(Cl)Cl
[1]
  T/C: 103 % of control

## NC(CCC(=O)NCc1ccc(S(=O)(=O)F)cc1)C(=O)O (centres undefined)
[19]
  T/C: 92 % of control
dose: 100.0 mg/kg/injection, schedule: Q01DX009 (ip), vehicle: saline
  T/C: 96 % of control
dose: 200.0 mg/kg/injection, schedule: Q01DX009 (ip), vehicle: saline
  T/C: 92 % of control

## CC(C)(C)C1=CC(=O)C(Cl)(C(C)(C)C)C(Cl)C1=O (centres undefined)
dose: 25.0 mg/kg/injection, schedule: Q01DX001 (ip), vehicle: saline with Tween-80
  T/C: 97 % of control
dose: 50.0 mg/kg/injection, schedule: Q01DX001 (ip), vehicle: saline with Tween-80
  T/C: 93 % of control

## c1cc[n+]2c(c1)-c1cccc[n+]1CCCC2
dose: 75.0 mg/kg/injection, schedule: Q01DX009 (ip), vehicle: saline
  T/C: 108 % of control
dose: 75.0 mg/kg/injection, schedule: Q04DX003 (ip), vehicle: saline
  T/C: 98 % of control
dose: 150.0 mg/kg/injection, schedule: Q01DX009 (ip), vehicle: saline
  T/C: 100 % of control
dose: 150.0 mg/kg/injection, schedule: Q04DX003 (ip), vehicle: saline
  T/C: 93 % of control
dose: 300.0 mg/kg/injection, schedule: Q04DX003 (ip), vehicle: saline
  T/C: 96 % of control

## O=C1C(=O)c2ccccc2-c2ccccc21
[4]
  T/C: 98 % of control
[5]
  T/C: 102 % of control

## O=C(O)c1cscc1-c1ccccc1
[12]
  T/C: 104 % of control
[13]
  T/C: 104 % of control
[15]
  T/C: 102 % of control

## CC1CC(C)(C)[N+](C)=C(CCc2ccccc2)O1 (centres undefined)
[20]
  T/C: 93 % of control

## N#CCCOS(=O)(=O)c1cccc([N+](=O)[O-])c1
[12]
  T/C: 98 % of control
[13]
  T/C: 101 % of control
[15]
  T/C: 93 % of control

## Cc1cc([NH-])c([NH-])cc1C.[Cl][Pt+2][Cl]
dose: 2.5 mg/kg/injection, schedule: Q01DX009 (ip), vehicle: saline with Tween-80
  T/C: 120 % of control and 123 % of control
dose: 10.0 mg/kg/injection, schedule: Q01DX009 (ip), vehicle: saline with Tween-80
  T/C: 150 % of control and 168 % of control
dose: 10.0 mg/kg/injection, schedule: Q04DX003 (ip), vehicle: water
  T/C: 121 % of control
dose: 16.0 mg/kg/injection, schedule: Q04DX003 (ip), vehicle: water
  T/C: 116 % of control
dose: 24.0 mg/kg/injection, schedule: Q04DX003 (ip), vehicle: water
  T/C: 112 % of control

## O=C(SCc1ccccc1)c1cccnc1
[10]
  T/C: 98 % of control
[11]
  T/C: 98 % of control
[17]
  T/C: 94 % of control
[21]
  T/C: 98 % of control
[4]
  T/C: 96 % of control
[5]
  T/C: 92 % of control

## CCc1cccc(OCC(C)=O)c1
dose: 75.0 mg/kg/injection, schedule: Q01DX001 (ip), vehicle: saline with Tween-80
  T/C: 97 % of control
dose: 150.0 mg/kg/injection, schedule: Q01DX001 (ip), vehicle: saline with Tween-80
  T/C: 101 % of control
dose: 300.0 mg/kg/injection, schedule: Q01DX001 (ip), vehicle: saline with Tween-80
  T/C: 100 % of control

## CCCCCCCCCCCCCCN1CCCN(CCCCCCCCCCCCCC)CC1
dose: 50.0 mg/kg/injection, schedule: Q04DX003 (ip), vehicle: saline with Tween-80
  T/C: 93 % of control
[20]
  T/C: 94 % of control
[5]
  T/C: 96 % of control and 101 % of control
dose: 100.0 mg/kg/injection, schedule: Q04DX002 (ip), vehicle: saline with Tween-80
  T/C: 96 % of control
[12]
  T/C: 93 % of control and 101 % of control
[18]
  T/C: 94 % of control
[7]
  T/C: 98 % of control and 104 % of control
dose: 200.0 mg/kg/injection, schedule: Q04DX002 (ip), vehicle: saline with Tween-80
  T/C: 93 % of control and 97 % of control
[13]
  T/C: 98 % of control and 100 % of control
dose: 400.0 mg/kg/injection, schedule: Q01DX001 (ip), vehicle: saline with Tween-80
  T/C: 101 % of control
[14]
  T/C: 93 % of control and 95 % of control
dose: 400.0 mg/kg/injection, schedule: Q04DX002 (ip), vehicle: saline with Tween-80
  T/C: 93 % of control and 96 % of control
[15]
  T/C: 98 % of control

## C=CC(N)=O
[21]
  T/C: 102 % of control
dose: 25.0 mg/kg/injection, schedule: Q04DX003 (ip), vehicle: saline
  T/C: 92 % of control
[19]
  T/C: 92 % of control
dose: 50.0 mg/kg/injection, schedule: Q04DX003 (ip), vehicle: saline
  T/C: 105 % of control
[6]
  T/C: 97 % of control

## CCCCCCCOc1ccc(N=[N+]([O-])c2ccc(OCCCCCCC)cc2)cc1
[12]
  T/C: 95 % of control
[13]
  T/C: 91 % of control
[15]
  T/C: 89 % of control
